In patent US20080009418A1, “Selective Inhibitors” (Alchemia LTD., priority 2004, published 2008):

Assays:
Human opioid (ORL1) = target: T1, Human opioid (ORL1) (Homo sapiens, UniProt P41146); assay: Radioligand binding, human opioid ORL1 membranes, FlashPlate, [125I]-Nociceptin; conditions: compound at 10 μM; for A10 radioligand binding inhibition: human ORL1 membranes
T1 construct: purchased Perkin Elmer Biosignal
How it was run: (§1)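 Cloned human receptor membranes were coated onto FlashPlate wells and incubated with radioligand and compound (added from a 0.5 mM DMSO daughter plate) for 1 hour at room temperature in the dark. Scintillation counting gave percent inhibition, with DMSO defining total and reference ligand defining non-specific binding.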

Human neurokinin (NK1) = target: T2, Human neurokinin (NK1) (Homo sapiens, UniProt P25103); assay: Radioligand binding, human neurokinin NK1 membranes, filtration, [125I]-Substance P; conditions: compound at 10 μM; for A8 radioligand binding inhibition: human neurokinin NK1 membranes
T2 construct: purchased Perkin Elmer Biosignal
T2 sequence (P25103 whole entry): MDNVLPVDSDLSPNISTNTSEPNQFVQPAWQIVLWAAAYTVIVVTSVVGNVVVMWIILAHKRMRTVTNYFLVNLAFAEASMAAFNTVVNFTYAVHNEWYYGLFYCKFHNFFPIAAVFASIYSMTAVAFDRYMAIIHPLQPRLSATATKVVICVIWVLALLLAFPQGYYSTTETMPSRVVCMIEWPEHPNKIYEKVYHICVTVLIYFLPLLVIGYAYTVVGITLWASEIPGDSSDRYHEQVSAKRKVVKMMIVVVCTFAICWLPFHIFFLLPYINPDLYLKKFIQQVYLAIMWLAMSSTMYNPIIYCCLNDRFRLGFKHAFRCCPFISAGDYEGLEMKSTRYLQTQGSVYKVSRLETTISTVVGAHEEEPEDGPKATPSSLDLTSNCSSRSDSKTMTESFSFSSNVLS
How it was run: (§2)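 Percent inhibition of radioligand binding measured on recombinant human membranes: NK1 with [125I]-Substance P, KOP with [3H]-Diprenorphine. Incubation 1 h at room temperature, then harvest onto 0.3% PEI-soaked filters, cold Tris-HCl pH 7.4 washes and scintillation counting; non-specific binding from reference ligand wells.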

Human δ-opioid (DOP) = target: T3, Human δ-opioid (DOP) (Homo sapiens, UniProt P41143); assay: Radioligand binding, human δ-opioid (DOP) membranes, FlashPlate, [3H]-Bremazocine; conditions: compound at 10 μM; for A1 radioligand binding inhibition: human δ-opioid (DOP) membranes
T3 construct: purchased Perkin Elmer Biosignal
T3 sequence (P41143 whole entry): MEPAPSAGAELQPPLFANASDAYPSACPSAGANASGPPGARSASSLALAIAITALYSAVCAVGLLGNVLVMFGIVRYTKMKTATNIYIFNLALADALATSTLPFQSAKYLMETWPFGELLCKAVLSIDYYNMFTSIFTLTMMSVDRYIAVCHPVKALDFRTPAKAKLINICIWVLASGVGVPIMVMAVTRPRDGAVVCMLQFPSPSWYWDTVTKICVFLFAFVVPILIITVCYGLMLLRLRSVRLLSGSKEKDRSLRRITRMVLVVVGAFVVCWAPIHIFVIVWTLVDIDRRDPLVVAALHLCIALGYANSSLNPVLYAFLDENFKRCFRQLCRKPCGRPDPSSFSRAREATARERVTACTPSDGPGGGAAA
How it was run: as §1

Human κ-Opioid (KOP) = target: T4, Human κ-Opioid (KOP) (Homo sapiens, UniProt P41145); assay: Radioligand binding, human κ-opioid (KOP) membranes, filtration, [3H]-Diprenorphine; conditions: compound at 10 μM; for A2 radioligand binding inhibition: human κ-opioid (KOP) membranes
T4 construct: purchased Perkin Elmer Biosignal
T4 sequence (P41145 whole entry): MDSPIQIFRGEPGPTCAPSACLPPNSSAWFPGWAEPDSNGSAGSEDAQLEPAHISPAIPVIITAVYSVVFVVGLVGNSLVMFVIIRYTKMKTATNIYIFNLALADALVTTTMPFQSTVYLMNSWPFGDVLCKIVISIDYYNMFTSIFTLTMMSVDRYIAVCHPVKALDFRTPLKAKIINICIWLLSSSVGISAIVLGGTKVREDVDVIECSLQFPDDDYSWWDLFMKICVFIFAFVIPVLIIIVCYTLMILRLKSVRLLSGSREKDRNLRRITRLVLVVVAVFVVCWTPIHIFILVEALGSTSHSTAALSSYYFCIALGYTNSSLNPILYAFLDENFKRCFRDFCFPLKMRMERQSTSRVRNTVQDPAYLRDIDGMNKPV
How it was run: as §2

Human Melanocortin (MC4) = target: T5, Human Melanocortin (MC4) (Homo sapiens, UniProt P32245); assay: Radioligand binding, human melanocortin MC4 membranes, FlashPlate, [125I]-NDP-αMSH; conditions: compound at 10 μM; for A4 radioligand binding inhibition: human melanocortin MC4 membranes
T5 construct: purchased Perkin Elmer Biosignal
T5 sequence (P32245 whole entry): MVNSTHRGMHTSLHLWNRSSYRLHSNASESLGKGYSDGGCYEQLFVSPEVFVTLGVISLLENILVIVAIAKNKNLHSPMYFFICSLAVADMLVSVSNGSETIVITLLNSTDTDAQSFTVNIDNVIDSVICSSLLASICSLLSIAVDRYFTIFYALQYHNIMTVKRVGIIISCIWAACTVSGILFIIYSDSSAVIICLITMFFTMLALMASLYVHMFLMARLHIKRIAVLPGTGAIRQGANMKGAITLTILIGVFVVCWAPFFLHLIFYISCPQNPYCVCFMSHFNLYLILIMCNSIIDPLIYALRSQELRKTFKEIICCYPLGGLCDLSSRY
How it was run: as §1

[1] = target: T6, Human melanin-concentrating hormone (MCH1) (Homo sapiens, UniProt Q99705); assay: Radioligand binding, human melanin-concentrating hormone MCH1 membranes, FlashPlate, [125I]-S36057; conditions: compound at 10 μM; for A6 radioligand binding inhibition: human MCH1 membranes
T6 construct: purchased Perkin Elmer Biosignal
T6 sequence (Q99705 whole entry): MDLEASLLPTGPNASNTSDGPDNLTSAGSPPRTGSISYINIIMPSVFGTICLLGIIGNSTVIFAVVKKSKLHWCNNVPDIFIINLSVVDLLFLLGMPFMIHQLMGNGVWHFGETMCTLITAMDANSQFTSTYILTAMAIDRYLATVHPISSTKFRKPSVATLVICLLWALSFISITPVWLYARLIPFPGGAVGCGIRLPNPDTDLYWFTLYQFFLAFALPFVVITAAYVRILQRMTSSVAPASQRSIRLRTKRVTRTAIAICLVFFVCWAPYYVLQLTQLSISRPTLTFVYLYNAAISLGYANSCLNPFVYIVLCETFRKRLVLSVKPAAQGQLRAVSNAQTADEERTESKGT
How it was run: as §1

Human μ-opioid (MOP) = target: T7, Human μ-opioid (MOP) (Homo sapiens, UniProt P35372); assay: Radioligand binding, human μ-opioid (MOP) membranes, FlashPlate, [3H]-Naloxone; conditions: compound at 10 μM; for A7 radioligand binding inhibition: human μ-opioid (MOP) membranes
T7 construct: purchased Perkin Elmer Biosignal
T7 sequence (P35372 whole entry): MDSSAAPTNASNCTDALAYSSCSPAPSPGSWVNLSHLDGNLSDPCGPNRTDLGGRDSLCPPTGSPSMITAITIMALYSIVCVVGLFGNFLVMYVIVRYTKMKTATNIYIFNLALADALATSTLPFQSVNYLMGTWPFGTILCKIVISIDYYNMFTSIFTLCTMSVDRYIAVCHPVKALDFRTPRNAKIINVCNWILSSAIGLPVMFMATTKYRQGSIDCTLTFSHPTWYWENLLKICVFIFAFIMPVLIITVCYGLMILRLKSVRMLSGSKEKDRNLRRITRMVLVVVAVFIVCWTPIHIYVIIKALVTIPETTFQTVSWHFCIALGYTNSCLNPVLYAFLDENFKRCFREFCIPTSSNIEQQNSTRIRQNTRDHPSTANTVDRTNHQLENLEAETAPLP
How it was run: as §1

Mouse urotensin (mUR2) = target: T8, Mouse urotensin (mUR2) (Mus musculus, UniProt Q8VIH9); assay: Radioligand binding, mouse urotensin mUR2 membranes, FlashPlate, [125I]-Urotensin II; conditions: compound at 10 μM; for A11 radioligand binding inhibition: mouse urotensin mUR2 membranes
T8 construct: purchased Perkin Elmer Biosignal
T8 sequence (Q8VIH9 1-385): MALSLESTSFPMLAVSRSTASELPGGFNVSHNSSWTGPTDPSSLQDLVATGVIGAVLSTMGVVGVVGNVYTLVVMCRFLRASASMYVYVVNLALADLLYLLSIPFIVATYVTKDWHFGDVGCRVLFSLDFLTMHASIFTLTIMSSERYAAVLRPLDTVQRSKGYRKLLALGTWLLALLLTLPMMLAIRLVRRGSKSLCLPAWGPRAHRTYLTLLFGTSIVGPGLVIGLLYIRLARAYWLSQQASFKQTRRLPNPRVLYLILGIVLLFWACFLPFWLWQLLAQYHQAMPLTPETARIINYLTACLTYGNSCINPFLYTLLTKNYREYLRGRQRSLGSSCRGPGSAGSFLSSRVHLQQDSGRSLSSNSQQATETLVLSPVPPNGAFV
How it was run: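 Cloned mouse urotensin (mUR2) receptor membranes from Perkin Elmer Biosignal were immobilized in FlashPlate microplates using a proprietary coating. Each well got 19.5 μl buffer, then 0.5 μl of DMSO, reference ligand, or compound. Adding 5 μl of [125I]-Urotensin II, diluted to 5× final concentration in binding buffer, started binding. Plates were sealed with TopSeal-A and incubated 1 hour at room temperature in the dark. Wells were counted for 30 seconds each on a TopCount after a 60-second delay, and percentage inhibition was calculated.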

Human Melanocortin (MC3) = target: T9, Human Melanocortin (MC3) (Homo sapiens, UniProt P41968); assay: Radioligand binding, human melanocortin MC3 membranes, FlashPlate, [125I]-NDP-αMSH; conditions: compound at 10 μM; for A3 radioligand binding inhibition: human melanocortin MC3 membranes
T9 construct: purchased Perkin Elmer Biosignal
T9 sequence (P41968 whole entry): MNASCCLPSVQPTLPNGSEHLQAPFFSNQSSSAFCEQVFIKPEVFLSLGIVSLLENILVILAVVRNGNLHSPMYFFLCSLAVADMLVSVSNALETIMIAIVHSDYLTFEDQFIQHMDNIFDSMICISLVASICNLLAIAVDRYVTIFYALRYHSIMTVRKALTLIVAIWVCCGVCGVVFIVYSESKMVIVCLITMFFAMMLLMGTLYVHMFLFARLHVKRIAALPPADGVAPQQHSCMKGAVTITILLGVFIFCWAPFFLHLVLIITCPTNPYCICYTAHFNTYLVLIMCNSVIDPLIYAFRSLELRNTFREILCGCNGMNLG
How it was run: as §1

Human melanocortin (MC5) = target: T10, Human melanocortin (MC5) (Homo sapiens, UniProt P33032); assay: Radioligand binding, human melanocortin MC5 membranes, FlashPlate, [125I]-NDP-αMSH; conditions: compound at 10 μM; for A5 radioligand binding inhibition: human melanocortin MC5 membranes
T10 construct: purchased Perkin Elmer Biosignal
T10 sequence (P33032 whole entry): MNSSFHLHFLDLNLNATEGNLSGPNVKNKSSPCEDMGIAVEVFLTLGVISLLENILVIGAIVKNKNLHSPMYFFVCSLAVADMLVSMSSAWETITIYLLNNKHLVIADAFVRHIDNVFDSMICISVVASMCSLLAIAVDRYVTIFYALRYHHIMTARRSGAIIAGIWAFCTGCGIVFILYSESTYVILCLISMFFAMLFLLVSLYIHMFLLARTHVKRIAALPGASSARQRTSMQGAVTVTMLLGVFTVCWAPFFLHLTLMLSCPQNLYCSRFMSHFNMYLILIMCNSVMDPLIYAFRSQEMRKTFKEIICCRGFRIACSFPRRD
How it was run: as §1

[2] = target: T11, Human neuropeptide Y (NPY-Y1) (Homo sapiens, UniProt P25929); assay: Radioligand binding, human neuropeptide Y NPY-Y1 membranes, FlashPlate, [125I]-PYY; conditions: compound at 10 μM; for A9 radioligand binding inhibition: human NPY-Y1 membranes
T11 construct: purchased Perkin Elmer Biosignal
T11 sequence (P25929 1-384): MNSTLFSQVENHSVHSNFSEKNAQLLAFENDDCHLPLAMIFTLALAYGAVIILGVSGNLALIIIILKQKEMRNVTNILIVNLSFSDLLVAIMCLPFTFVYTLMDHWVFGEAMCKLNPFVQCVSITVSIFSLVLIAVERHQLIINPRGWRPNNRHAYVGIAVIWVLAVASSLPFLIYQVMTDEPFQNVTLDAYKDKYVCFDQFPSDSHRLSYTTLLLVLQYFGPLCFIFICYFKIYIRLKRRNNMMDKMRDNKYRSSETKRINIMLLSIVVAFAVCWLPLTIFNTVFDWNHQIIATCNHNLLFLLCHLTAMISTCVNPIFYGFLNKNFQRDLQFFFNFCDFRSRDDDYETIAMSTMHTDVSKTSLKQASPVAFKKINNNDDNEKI
How it was run: as §1

T1 sequence (P41146 whole entry): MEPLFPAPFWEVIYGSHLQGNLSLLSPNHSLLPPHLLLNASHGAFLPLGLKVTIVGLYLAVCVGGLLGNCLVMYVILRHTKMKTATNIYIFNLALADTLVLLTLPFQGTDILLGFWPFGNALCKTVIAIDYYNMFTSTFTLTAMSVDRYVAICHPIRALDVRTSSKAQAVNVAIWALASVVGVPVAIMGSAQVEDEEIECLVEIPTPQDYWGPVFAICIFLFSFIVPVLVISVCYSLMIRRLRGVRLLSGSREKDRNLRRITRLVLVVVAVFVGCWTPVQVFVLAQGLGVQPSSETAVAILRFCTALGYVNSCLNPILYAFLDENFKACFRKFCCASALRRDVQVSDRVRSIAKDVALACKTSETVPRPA

Structure (SMILES)	A8: inhibition of radioligand binding, human neurokinin (NK1) (Human neurokinin (NK1); [125I]-Substance P)	A1: inhibition of radioligand binding, human δ-opioid (DOP) (Human δ-opioid (DOP); [3H]-Bremazocine)	A9: inhibition of radioligand binding, human neuropeptide Y (NPY-Y1) ([2]; [125I]-PYY)	A10 radioligand binding inhibition (Human opioid (ORL1))	A8 radioligand binding inhibition (Human neurokinin (NK1))	A1 radioligand binding inhibition (Human δ-opioid (DOP))	A2 radioligand binding inhibition (Human κ-Opioid (KOP))	A4 radioligand binding inhibition (Human Melanocortin (MC4))	A6 radioligand binding inhibition [1]	A7 radioligand binding inhibition (Human μ-opioid (MOP))	A11 radioligand binding inhibition (Mouse urotensin (mUR2))	A3 radioligand binding inhibition (Human Melanocortin (MC3))	A5 radioligand binding inhibition (Human melanocortin (MC5))	A9 radioligand binding inhibition [2]	other results
COC[C@H]1OC(OCCc2ccccc2)[C@H](NC(=O)CCCN)[C@@H](OCc2ccc3ccccc3c2)[C@@H]1O (single isomer, unassigned) [compound 345]	+ (“+” indicates greater than 50% inhibition at 10 μM)	− (“−” indicates less than 50% inhibition at 10 μM)	− (“−” indicates less than 50% inhibition at 10 μM)												A10: inhibition of radioligand binding, human opioid (ORL1) (Human opioid (ORL1); [125I]-Nociceptin, 10 µM): − (“−” indicates less than 50% inhibition at 10 μM); A2: inhibition of radioligand binding, human κ-opioid (KOP) (Human κ-Opioid (KOP); [3H]-Diprenorphine, 10 µM): − (“−” indicates less than 50% inhibition at 10 μM); A4: inhibition of radioligand binding, human melanocortin (MC4) (Human Melanocortin (MC4); [125I]-NDP-αMSH, 10 µM): − (“−” indicates less than 50% inhibition at 10 μM); A6: inhibition of radioligand binding, human melanin-concentrating hormone (MCH1) ([1]; [125I]-S36057, 10 µM): − (“−” indicates less than 50% inhibition at 10 μM); A7: inhibition of radioligand binding, human μ-opioid (MOP) (Human μ-opioid (MOP); [3H]-Naloxone, 10 µM): − (“−” indicates less than 50% inhibition at 10 μM); A11: inhibition of radioligand binding, mouse urotensin (mUR2) (Mouse urotensin (mUR2); [125I]-Urotensin II, 10 µM): − (“−” indicates less than 50% inhibition at 10 μM); A3: inhibition of radioligand binding, human melanocortin (MC3) (Human Melanocortin (MC3); [125I]-NDP-αMSH, 10 µM): − (“−” indicates less than 50% inhibition at 10 μM); A5: inhibition of radioligand binding, human melanocortin (MC5) (Human melanocortin (MC5); [125I]-NDP-αMSH, 10 µM): − (“−” indicates less than 50% inhibition at 10 μM)
COC[C@H]1OC(OCc2ccc(Cl)cc2)[C@H](NC(=O)CCCNC(=N)N)[C@@H](OCc2ccc(Cl)cc2)[C@@H]1O (stereo partly shown) [compound 39]				− (“−” indicates less than 50% inhibition at 10 μM)	+ (“+” indicates greater than 50% inhibition at 10 μM)	− (“−” indicates less than 50% inhibition at 10 μM)	− (“−” indicates less than 50% inhibition at 10 μM)	− (“−” indicates less than 50% inhibition at 10 μM)	+ (“+” indicates greater than 50% inhibition at 10 μM)	− (“−” indicates less than 50% inhibition at 10 μM)	− (“−” indicates less than 50% inhibition at 10 μM)	− (“−” indicates less than 50% inhibition at 10 μM)	− (“−” indicates less than 50% inhibition at 10 μM)	− (“−” indicates less than 50% inhibition at 10 μM)	
COCC1OC(OCc2ccccc2)C(NC(=O)CCN)C(OCc2ccc(Cl)cc2)C1O (stereo not shown) [compound 178]															A10 radioligand binding, percentage inhibition (Human opioid (ORL1); [125I]-Nociceptin): − (“−” indicates less than 50% inhibition at 10 μM); A8 radioligand binding, percentage inhibition (Human neurokinin (NK1); [125I]-Substance P): + (“+” indicates greater than 50% inhibition at 10 μM); A1 radioligand binding, percentage inhibition (Human δ-opioid (DOP); [3H]-Bremazocine): − (“−” indicates less than 50% inhibition at 10 μM); A2 radioligand binding, percentage inhibition (Human κ-Opioid (KOP); [3H]-Diprenorphine): − (“−” indicates less than 50% inhibition at 10 μM); A4 radioligand binding, percentage inhibition (Human Melanocortin (MC4); [125I]-NDP-αMSH): − (“−” indicates less than 50% inhibition at 10 μM); A6 radioligand binding, percentage inhibition ([1]; [125I]-S36057): − (“−” indicates less than 50% inhibition at 10 μM); A7 radioligand binding, percentage inhibition (Human μ-opioid (MOP); [3H]-Naloxone): − (“−” indicates less than 50% inhibition at 10 μM); A11 radioligand binding, percentage inhibition (Mouse urotensin (mUR2); [125I]-Urotensin II): − (“−” indicates less than 50% inhibition at 10 μM); A3 radioligand binding, percentage inhibition (Human Melanocortin (MC3); [125I]-NDP-αMSH): − (“−” indicates less than 50% inhibition at 10 μM); A5 radioligand binding, percentage inhibition (Human melanocortin (MC5); [125I]-NDP-αMSH): + (“+” indicates greater than 50% inhibition at 10 μM); A9 radioligand binding, percentage inhibition ([2]; [125I]-PYY): − (“−” indicates less than 50% inhibition at 10 μM)
COC[C@H]1OC(OCc2ccc3ccccc3c2)[C@H](NC(=O)CNC(=N)N)[C@@H](OCc2ccc(Cl)cc2)[C@@H]1O (stereo partly shown) [compound 22]				− (“−” indicates less than 50% inhibition at 10 μM)	− (“−” indicates less than 50% inhibition at 10 μM)	− (“−” indicates less than 50% inhibition at 10 μM)	− (“−” indicates less than 50% inhibition at 10 μM)	− (“−” indicates less than 50% inhibition at 10 μM)	− (“−” indicates less than 50% inhibition at 10 μM)	− (“−” indicates less than 50% inhibition at 10 μM)	− (“−” indicates less than 50% inhibition at 10 μM)	− (“−” indicates less than 50% inhibition at 10 μM)	+ (“+” indicates greater than 50% inhibition at 10 μM)	− (“−” indicates less than 50% inhibition at 10 μM)	
CSC1OC(COCc2cccc(N)c2)C(O)C(OCc2ccc(Cl)cc2)C1NC(=O)Cc1ccccc1 (stereo not shown) [compound 328]	+ (“+” indicates greater than 50% inhibition at 10 μM)	− (“−” indicates less than 50% inhibition at 10 μM)	− (“−” indicates less than 50% inhibition at 10 μM)												A10: inhibition of radioligand binding, human opioid (ORL1) (Human opioid (ORL1); [125I]-Nociceptin): − (“−” indicates less than 50% inhibition at 10 μM); A2: inhibition of radioligand binding, human κ-opioid (KOP) (Human κ-Opioid (KOP); [3H]-Diprenorphine): − (“−” indicates less than 50% inhibition at 10 μM); A4: inhibition of radioligand binding, human melanocortin (MC4) (Human Melanocortin (MC4); [125I]-NDP-αMSH): − (“−” indicates less than 50% inhibition at 10 μM); A6: inhibition of radioligand binding, human melanin-concentrating hormone (MCH1) ([1]; [125I]-S36057): − (“−” indicates less than 50% inhibition at 10 μM); A7: inhibition of radioligand binding, human μ-opioid (MOP) (Human μ-opioid (MOP); [3H]-Naloxone): − (“−” indicates less than 50% inhibition at 10 μM); A11: inhibition of radioligand binding, mouse urotensin (mUR2) (Mouse urotensin (mUR2); [125I]-Urotensin II): − (“−” indicates less than 50% inhibition at 10 μM); A3: inhibition of radioligand binding, human melanocortin (MC3) (Human Melanocortin (MC3); [125I]-NDP-αMSH): − (“−” indicates less than 50% inhibition at 10 μM); A5: inhibition of radioligand binding, human melanocortin (MC5) (Human melanocortin (MC5); [125I]-NDP-αMSH): − (“−” indicates less than 50% inhibition at 10 μM)
